Assay results taken from patent US6864245B2, “Biocompatible poly-β-1→4-N-acetylglucosamine” (priority 1993, dated 2005).
Where “and” joins values, the source holds several entries; their conditions need not be identical. Identical values can stand only once. Like-named read-outs stand apart in the source and are kept apart here.

Tested on: HT29 colon tumors
Details: Intravenous Injection, daily

Question: With O=c1[nH]cc(F)c(=O)[nH]1 [5′-FU, 5′-fluorouracil] as the compound, how does the “% Change” value (High Dose) read?
Answer: −67.0%

Question: And the “Comments (death)” value (High Dose)?
Answer: Died day 13

Question: And the “Tumor Volume Post-treatment” value (High Dose)?
Answer: 132 mm^3

Question: And the “Tumor Volume Pre-Treatment” value (High Dose)?
Answer: 402 mm^3

Question: What about the “Comments (death)” value (Low Dose) of the same compound?
Answer: Died day 13

Question: What about the “Tumor Volume Post-treatment” value (Low Dose) of the same compound?
Answer: 703 mm^3 and 402 mm^3

Question: And the “Tumor Volume Pre-Treatment” value (Low Dose)?
Answer: 402 mm^3
